For this test, the target named is T1, LXRβ (Homo sapiens, UniProt P55055).
T1 construct: Co-transfection expression plasmids, comprising full-length LXRα (pCMX-h LXRα[…] or LXRβ (pCMX-hLXRβ)); expressed in transfected cells; host or cells: CV-1 African Green Monkey Kidney Cells
T1 sequence (P55055 1-460): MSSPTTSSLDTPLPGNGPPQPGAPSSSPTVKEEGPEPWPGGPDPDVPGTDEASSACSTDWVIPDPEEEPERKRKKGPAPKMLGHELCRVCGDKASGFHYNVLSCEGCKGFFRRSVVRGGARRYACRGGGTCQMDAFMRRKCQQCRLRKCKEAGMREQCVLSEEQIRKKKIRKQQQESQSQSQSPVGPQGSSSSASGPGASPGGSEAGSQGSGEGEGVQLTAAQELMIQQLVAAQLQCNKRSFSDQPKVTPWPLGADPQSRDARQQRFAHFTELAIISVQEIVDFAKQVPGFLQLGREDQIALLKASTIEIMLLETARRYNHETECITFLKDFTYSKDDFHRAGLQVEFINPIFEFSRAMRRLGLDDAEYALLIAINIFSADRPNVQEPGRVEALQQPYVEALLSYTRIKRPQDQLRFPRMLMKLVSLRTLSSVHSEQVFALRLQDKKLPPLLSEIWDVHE
T1 sequence (P19793 1-462 partner): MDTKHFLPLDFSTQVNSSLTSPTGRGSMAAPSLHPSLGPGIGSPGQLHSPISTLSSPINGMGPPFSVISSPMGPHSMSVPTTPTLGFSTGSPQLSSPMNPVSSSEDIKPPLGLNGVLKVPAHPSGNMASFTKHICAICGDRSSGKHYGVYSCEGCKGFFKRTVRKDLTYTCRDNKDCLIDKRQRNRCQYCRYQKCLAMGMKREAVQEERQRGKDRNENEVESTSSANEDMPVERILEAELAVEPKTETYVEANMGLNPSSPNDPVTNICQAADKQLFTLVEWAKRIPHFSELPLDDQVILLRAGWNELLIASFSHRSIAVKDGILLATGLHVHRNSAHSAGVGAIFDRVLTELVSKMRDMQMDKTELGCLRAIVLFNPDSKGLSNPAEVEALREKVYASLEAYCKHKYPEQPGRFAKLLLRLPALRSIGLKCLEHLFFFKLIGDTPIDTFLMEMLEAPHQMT
Put plainly: Co-transfection assay (LXRE luciferase reporter), LXRβ. It is filed as cell-based. To be noted: for EC50: CV-1 cells transfected with pCMX-hLXRβ and LXREx1-Tk-Luciferase, 20 hours incubation; for Emax: LXRβ co-transfection, relative to high control 1-(2,4-difluorobenzyl)-2-oxo-6-(4-phenoxyphenyl)-4-(trifluoromethyl)-1,2-dihydropyridine-3-carbonitrile, read-out: % Efficacy. The method, boiled down: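 Cell-based LXRβ agonism measured as LXRE-luciferase induction in transiently transfected CV-1 cells after 20 h treatment. Potency is the curve-fit EC50; efficacy is expressed as percent of a full-agonist control's maximal response.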

Usually EC50 stands for the concentration at which the effect is half-maximal. Read a high EC50 as a less potent agent. For the compound `COCc1c(F)cc(-c2cc(F)c(-n3cc(C(F)(F)F)nc3C)c(-n3nncc3-c3ccc(Cl)cc3)c2)cc1S(C)(=O)=O` [Example 207, 5-(4-chlorophenyl)-1-{3′,5-difluoro-4′-[(methyloxy)methyl]-5′-(methylsulfonyl)-4-[2-methyl-4-(trifluoromethyl)-1H-imidazol-1-yl]biphenyl-3-yl}-1H-1,2,3-triazole], the 50% effective concentration (EC50) was 176 nM and the Emax came to 76%.

Consider `Cc1nc(C(F)(F)F)cn1-c1c(F)cc(-c2cccc(S(=O)(=O)NCCO)c2)cc1-n1nncc1-c1ccc(OC(F)(F)F)cc1` [Example 208, 3′-fluoro-N-(2-hydroxyethyl)-4′-[2-methyl-4-(trifluoromethyl)-1H-imidazol-1-yl]-5′-(5-{4-[(trifluoromethyl)oxy]phenyl}-1H-1,2,3-triazol-1-yl)biphenyl-3-sulfonamide], for which a half-maximal response (EC50) required 1270 nM and the Emax is 77%.

In the case of `CNS(=O)(=O)c1cccc(-c2cc(F)c(-n3cc(C(F)(F)F)nc3C)c(-n3nncc3-c3ccc(Cl)cc3)c2)c1` [Example 209, 3′-[5-(4-chlorophenyl)-1H-1,2,3-triazol-1-yl]-5′-fluoro-N-methyl-4′-[2-methyl-4-(trifluoromethyl)-1H-imidazol-1-yl]biphenyl-3-sulfonamide], a half-maximal response (EC50) required 214 nM and the Emax was 80%.

In the case of `Cc1nc(C(F)(F)F)cn1-c1c(F)cc(-c2ccc(CO)c(S(C)(=O)=O)c2)cc1-n1nncc1-c1ccc(Cl)cc1` [Example 210, {3′-[5-(4-chlorophenyl)-1H-1,2,3-triazol-1-yl]-5′-fluoro-3-(methylsulfonyl)-4′-[2-methyl-4-(trifluoromethyl)-1H-imidazol-1-yl]biphenyl-4-yl}methanol], the EC50 worked out at 394 nM and the Emax turned out to be 78%.

`Cc1nc(C(F)(F)F)cn1-c1ccc(-c2cc(F)c(CO)c(S(C)(=O)=O)c2)cc1-n1nncc1-c1ccc(OC(F)(F)F)cc1` [Example 211, (3-fluoro-4′-(2-methyl-4-(trifluoromethyl)-1H-imidazol-1-yl)-5-(methylsulfonyl)-3′-(5-(4-(trifluoromethoxy)phenyl)-1H-1,2,3-triazol-1-yl)-[1,1′-biphenyl]-4-yl)methanol]: a half-maximal effect (EC50) was put at 127 nM and the Emax was determined as 99%.

For `Cc1nc(C(F)(F)F)cn1-c1ccc(-c2cc(Cl)c(CO)c(S(C)(=O)=O)c2)cc1-n1nncc1-c1ccc(OC(F)(F)F)cc1` [Example 212, (3-chloro-4′-(2-methyl-4-(trifluoromethyl)-1H-imidazol-1-yl)-5-(methylsulfonyl)-3′-(5-(4-(trifluoromethoxy)phenyl)-1H-1,2,3-triazol-1-yl)-[1,1′-biphenyl]-4-yl)methanol], a half-maximal effect (EC50) was put at 430 nM and the Emax was 101%.

Take `CNS(=O)(=O)c1cccc(-c2ccc(-n3cc(C(F)(F)F)nc3C)c(-n3nncc3-c3ccc(OC(F)(F)F)cc3)c2)c1` [Example 213, N-methyl-4′-(2-methyl-4-(trifluoromethyl)-1H-imidazol-1-yl)-3′-(5-(4-(trifluoromethoxy)phenyl)-1H-1,2,3-triazol-1-yl)-[1,1′-biphenyl]-3-sulfonamide]: it took 94 nM to reach a half-maximal effect (EC50) and the Emax stood at 89%.

With `Cc1nc(C(F)(F)F)cn1-c1ccc(-c2cccc(S(=O)(=O)N(C)C)c2)cc1-n1nncc1-c1ccc(OC(F)(F)F)cc1` [Example 214, N,N-dimethyl-4′-(2-methyl-4-(trifluoromethyl)-1H-imidazol-1-yl)-3′-(5-(4-(trifluoromethoxy)phenyl)-1H-1,2,3-triazol-1-yl)-[1,1′-biphenyl]-3-sulfonamide], the concentration giving a half-maximal response (EC50) was 210 nM and the Emax turned out to be 87%.

For `CCS(=O)(=O)c1cccc(-c2ccc(-n3cc(C(F)(F)F)nc3C)c(-n3nncc3-c3ccc(OC(F)(F)F)cc3)c2)c1` [Example 215, 1-(3′-(ethylsulfonyl)-4-(2-methyl-4-(trifluoromethyl)-1H-imidazol-1-yl)-[1,1-biphenyl]-3-yl)-5-(4-(trifluoromethoxy)phenyl)-1H-1,2,3-triazole], the EC50 was 334 nM and the Emax came to 86%.

On to `Cc1nc(C(F)(F)F)cn1-c1ccc(-c2cc(F)c(CO)c(S(C)(=O)=O)c2)cc1-n1nncc1-c1ccc2occc2c1` [Example 216, (3′-(5-(benzofuran-5-yl)-1H-1,2,3-triazol-1-yl)-3-fluoro-4′-(2-methyl-4-(trifluoromethyl)-1H-imidazol-1-yl)-5-(methylsulfonyl)-[1,1′-biphenyl]-4-yl)methanol], for which the 50% effective concentration (EC50) is 286 nM and the Emax stood at 91%.

Consider `Cc1nc(C(F)(F)F)cn1-c1ccc(-c2cccc(S(C)(=O)=O)c2)cc1-n1nncc1Cc1ccccc1Cl` [Example 219, 5-(2-chlorobenzyl)-1-(4-(2-methyl-4-(trifluoromethyl)-1H-imidazol-1-yl)-3′-(methylsulfonyl)-[1,1′-biphenyl]-3-yl)-1H-1,2,3-triazole], for which it took 1520 nM to reach a half-maximal effect (EC50) and the Emax was found to be 44%.

Regarding `Cc1nc(C(F)F)cn1-c1ccc(-c2cc(F)c(CO)c(S(C)(=O)=O)c2)cc1-n1nncc1-c1ccc(OC(F)(F)F)cc1` [Example 220, (4′-(4-(difluoromethyl)-2-methyl-1H-imidazol-1-yl)-3-fluoro-5-(methylsulfonyl)-3′-(5-(4-(trifluoromethoxy)phenyl)-1H-1,2,3-triazol-1-yl)-[1,1′-biphenyl]-4-yl)methanol], the EC50 worked out at 782 nM and the Emax was 102%.

In the case of `Cc1nc(C(F)(F)C(C)C)cn1-c1ccc(-c2cc(F)c(CO)c(S(C)(=O)=O)c2)cc1-n1nncc1-c1ccc(OC(F)(F)F)cc1` [Example 221, (4′-(4-(1,1-difluoro-2-methylpropyl)-2-methyl-1H-imidazol-1-yl)-3-fluoro-5-(methylsulfonyl)-3′-(5-(4-(trifluoromethoxy)phenyl)-1H-1,2,3-triazol-1-yl)-[1,1′-biphenyl]-4-yl)methanol], the EC50 was 111 nM and the Emax amounted to 69%.

As for `Cc1nc(C(F)(F)F)cn1-c1ccc(-c2cccc(S(C)(=O)=O)c2)cc1-n1nncc1C(C)(C)c1ccc(Cl)cc1` [Example 222, 5-(2-(4-chlorophenyl)propan-2-yl)-1-(4-(2-methyl-4-(trifluoromethyl)-1H-imidazol-1-yl)-3′-(methylsulfonyl)-[1,1′-biphenyl]-3-yl)-1H-1,2,3-triazole], the concentration for a half-maximal effect (EC50) was 1850 nM and the Emax amounted to 43%.

`Cc1nc(C(F)(F)F)cn1-c1ccc(-c2cc(F)c(CO)c(S(C)(=O)=O)c2)cc1-n1nncc1C(C)(C)c1ccc(Cl)cc1` [Example 223, (3′-(5-(2-(4-chlorophenyl)propan-2-yl)-1H-1,2,3-triazol-1-yl)-3-fluoro-4′-(2-methyl-4-(trifluoromethyl)-1H-imidazol-1-yl)-5-(methylsulfonyl)-[1,1′-biphenyl]-4-yl)methanol]: the response was half-maximal at 1770 nM (EC50) and the Emax was 63%.

Consider `Cc1nc(C(F)(F)F)cn1-c1ccc(-c2cccc(S(C)(=O)=O)c2)cc1-n1nncc1C(C)(F)c1ccc(Cl)cc1` (stereo not drawn) [Example 224, 5-(1-(4-chlorophenyl)-1-fluoroethyl)-1-(4-(2-methyl-4-(trifluoromethyl)-1H-imidazol-1-yl)-3′-(methylsulfonyl)-[1,1′-biphenyl]-3-yl)-1H-1,2,3-triazole], for which the EC50 stood at 411 nM and the Emax turned out to be 57%.

For `CS(=O)(=O)c1cccc(-c2ccc(-n3cc(C(F)(F)F)nc3C(F)F)c(-n3nncc3-c3ccc(Cl)cc3)c2)c1` [Example 225, 5-(4-chlorophenyl)-1-(4-(2-(difluoromethyl)-4-(trifluoromethyl)-1H-imidazol-1-yl)-3′-(methylsulfonyl)-[1,1′-biphenyl]-3-yl)-1H-1,2,3-triazole], a half-maximal effect (EC50) was put at 1100 nM and the Emax turned out to be 91%.

Turning to `CS(=O)(=O)c1cccc(-c2ccc(-n3cc(C(F)(F)F)nc3C(F)F)c(-n3nncc3-c3ccc(OC(F)(F)F)cc3)c2)c1` [Example 226, 1-(4-(2-(difluoromethyl)-4-(trifluoromethyl)-1H-imidazol-1-yl)-3′-(methylsulfonyl)-[1,1′-biphenyl]-3-yl)-5-(4-(trifluoromethoxy)phenyl)-1H-1,2,3-triazole], the response was half-maximal at 677 nM (EC50) and the Emax is 92%.

Values taken from patent US9834542B2, “LXR modulators” (BRISTOL-MYERS SQUIBB COMPANY, priority 2013, dated 2017).
